Data on three molecules can be found in paper PMC9849758, “Chemically diverse activity-based probes with unexpected inhibitory mechanisms targeting trypsin-like serine proteases” (Frontiers in Chemistry, 2023).

Counter-ions that a name gives are not always drawn.

Experiment [1] concerns the target T1, CatG (Homo sapiens, UniProt P08311).
T1 sequence (P08311 21-255): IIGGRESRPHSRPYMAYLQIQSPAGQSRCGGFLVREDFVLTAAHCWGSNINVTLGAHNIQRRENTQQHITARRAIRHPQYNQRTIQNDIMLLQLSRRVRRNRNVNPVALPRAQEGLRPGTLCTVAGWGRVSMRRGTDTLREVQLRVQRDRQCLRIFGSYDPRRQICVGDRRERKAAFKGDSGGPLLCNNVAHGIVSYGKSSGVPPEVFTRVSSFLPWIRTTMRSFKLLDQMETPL
Kind of experiment: Labeling and detection of recombinant proteases (SDS-PAGE blot, NeutrAvidin-HRP). Format: binding. The conditions noted are these: 1 µM ABP, 100 ng protease, 30 min 37°C, denaturing SDS-PAGE blot. As to the method: (§1) Recombinant proteases (100 ng) were labeled with 1 µM ABP in reaction buffer in a final volume of 40 µL for 30 min at 37°C. After the addition of 4X Laemmli buffer (Bio-Rad, GmbH) supplemented with Bond-Breaker Tris (2-CarboxyEthyl)Phosphine (TCEP) Solution (Thermo Scientific, United States), the samples were heated at 95°C for 5 min and loaded into 4%–20% Mini-Protean TGX precast gels (Bio-Rad, GmbH). After electrophoresis, the proteins were blotted onto nitrocellulose membranes using the Trans-Blot Transfer Turbo System (Bio-Rad). Membranes were incubated with NeutrAvidin-HRP (1:50,000), and bands were visualized with ECL Select Western Blot Detection Reagent (GE Healthcare Life Sciences) by chemiluminescence (Chemidoc XRS; Bio-Rad). The molecular weight of each band was determined with the Image Lab Software v5 (Bio-Rad).
(§2) To further characterize the newly synthesized compounds and their potential to be used as ABPs, nine desthiobiotin probes were used for the labeling and detection of recombinant proteases. The arginine (45b–46b) and the proline-lysine (58b) desthiobiotin probes were used as reference compounds. Whereas the benzyl guanidine (50b, 52b, 54b) and phenyl guanidine probes (55b–57b) were used to determine whether the mechanism of inhibition (reversible or irreversible) is an obstacle to visualize the proteases. Samples of human recombinant proteases (trypsin-3, β-tryptase, and CatG) were incubated with the different probes before electrophoresis and detection with NeutrAvidin-HRP on a Western blot. Figure 7A illustrates the ability of the desthiobiotin probes to indicate the presence of the corresponding trypsin-like enzyme. […] This effect can be explained due to the strong interactions between the active site of the protease and the probes. The high affinity and the slow off-rates were described in Table 5 by the equilibrium constants KI*. Assuming that there is an excess of inhibitor over enzyme, the free inhibitor concentration must be very low, lower than the KI*, in order for the complex to dissociate. Therefore, the high affinity complex E*I survives during the whole process of labeling, gel electrophoresis, and visualization.

Experiment [2] deals with T2, Trypsin-3 (Homo sapiens, UniProt P35030).
T2 sequence (P35030 1-304): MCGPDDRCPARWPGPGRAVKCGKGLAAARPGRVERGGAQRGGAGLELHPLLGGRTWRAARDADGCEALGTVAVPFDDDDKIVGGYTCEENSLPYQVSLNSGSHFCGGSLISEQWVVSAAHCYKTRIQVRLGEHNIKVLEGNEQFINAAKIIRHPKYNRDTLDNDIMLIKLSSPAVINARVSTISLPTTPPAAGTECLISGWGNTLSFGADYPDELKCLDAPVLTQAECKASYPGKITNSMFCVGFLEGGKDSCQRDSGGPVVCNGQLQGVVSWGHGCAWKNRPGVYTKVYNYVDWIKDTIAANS
The description is as above. The format is binding. The following applies: 1 µM ABP, 100 ng protease, 30 min 37°C, denaturing SDS-PAGE blot. Here is the method:
as §1, §2

Regarding `CC(=O)Nc1ccc(OP(=O)(Oc2ccc(NC(C)=O)cc2)C(Cc2ccc(NC(=N)N)cc2)NC(=O)OCCCc2cn(CCOCCOCCOCCNC(=O)CCCCC[C@H]3NC(=O)N[C@H]3C)nn2)cc1` (stereo partly drawn) [52b], the “labeling of recombinant CatG” value in experiment [1] was “can label”. Moreover, the “labeling of recombinant trypsin-3” value in experiment [2] is “can label”.
As for `C[C@@H]1NC(=O)N[C@@H]1CCCCCC(=O)NCCOCCOCCOCCn1cc(CCCOC(=O)NC(Cc2ccc(NC(=N)N)cc2)P(=O)(Oc2ccccc2)Oc2ccccc2)nn1` (stereo partly drawn) [50b, 3-(1-(18-((4R,5S)-5-methyl-2-oxoimidazolidin-4-yl)-13-oxo-3,6,9-trioxa-12-azaoctadecyl)-1H-1,2,3-triazol-4-yl)propyl (1-(diphenoxyphosphoryl)-2-(4-guanidinophenyl)ethyl)carbamate trifluoroacetate salt], in experiment [1], the “labeling of recombinant CatG” value is on record as “can label”. Moreover, the “labeling of recombinant trypsin-3” value in experiment [2] is recorded as “can label”.
As to `C[C@@H]1NC(=O)N[C@@H]1CCCCCC(=O)NCCOCCOCCOCCn1cc(CCCOC(=O)NC(Cc2ccc(NC(=N)N)cc2)P(=O)(Oc2ccc(Cl)cc2)Oc2ccc(Cl)cc2)nn1` (stereo partly drawn) [54b], in experiment [1], the “labeling of recombinant CatG” value was “can label”. In experiment [2], the “labeling of recombinant trypsin-3” value is recorded as “can label”.
